Measurements published in patent US8426403B2, “Gamma secretase modulators” (priority 2007, dated 2013).

Test system: Aβ42
Assay: Secretase Reaction and Aβ Analysis in Whole Cells (total Aβ, Aβ40, Aβ42 by ECL sandwich immunoassay)
Format: cell-based
Conditions: HEK293 cells overexpressing APP with Swedish and London mutations
Description: Secretase Reaction and Aβ Analysis in Whole Cells: HEK293 cells overexpressing APP with Swedish and London mutations were treated with the specified compounds for 5 hour at 37° C. in […] of DMEM medium containing 10% fetal bovine serum. At the end of the incubation, total Aβ, Aβ40 and Aβ42 were measured using electrochemiluminescence (ECL) based sandwich immunoassays. Total Aβ was determined using a pair of antibodies TAG-WO2 and biotin-4G8, Aβ40 was identified with antibody pairs TAG-G2-10 and biotin-4G8, while Aβ42 was identified with TAG-G2-11 and biotin-4G8. The ECL signal was measured using Sector Imager 2400 (Meso Scale Discovery).

Structure (SMILES): COc1cc(/C=C/C2=NC(=O)C(C)(c3ccc(F)cc3)N2)ccc1-n1cnc(C)c1 (centres unmarked) [Compound G4]
- Abtotal/Ab42 selectivity (total Aβ versus Aβ42): 11 fold
- IC50 (Homo sapiens, 5 hour at 37° C., ECL sandwich immunoassay, read-out: Ab42 IC50): 1110 nM
